Results reported in patent US20230218710A1, “METHOD OF TREATING CORONAVIRUS INFECTIONS” (priority 2020, published 2023).
Marks after values point to notes of the source that are not given here.

Tests used:
[1] = system: LPS-induced acute lung injury mouse model; experiment: LPS-induced acute lung injury model in mouse (Example 8); format: in vivo, mice; conditions: HCl salts; for Pro-inflammatory Cytokine Level IFNγ / Pro-inflammatory Cytokine Level IL-1β / Pro-inflammatory Cytokine Level IL-2 / Pro-inflammatory Cytokine Level IL-4 / Pro-inflammatory Cytokine Level IL-5 / Pro-inflammatory Cytokine Level IL-6 / Pro-inflammatory Cytokine Level IL-9 / Pro-inflammatory Cytokine Level IL-10 / Pro-inflammatory Cytokine Level IL-12p70 / Pro-inflammatory Cytokine Level IL-17A / Pro-inflammatory Cytokine Level IL-17A/F / Pro-inflammatory Cytokine Level IL-17C / Pro-inflammatory Cytokine Level IL-17E/IL-25 / Pro-inflammatory Cytokine Level IL-23 / Pro-inflammatory Cytokine Level IL-27p28/IL-30 / Pro-inflammatory Cytokine Level IL-31 / Pro-inflammatory Cytokine Level IP-10 / Pro-inflammatory Cytokine Level KC/GRO / Pro-inflammatory Cytokine Level MCP-1 / Pro-inflammatory Cytokine Level MIP-1α / Pro-inflammatory Cytokine Level MIP-2 / Pro-inflammatory Cytokine Level MIP-3α / Pro-inflammatory Cytokine Level TNFα: BALF; for Mean (SEM) Alveolar Neutrophil Infiltration Score / Mean (SEM) Interstitial Neutrophil Infiltration Score / Mean (SEM) Composite Lung Injury Score: histopathology; for Mean (SEM) Alveolar Neutrophil Infiltration Score / Mean (SEM) Interstitial Neutrophil Infiltration Score: 0-5 scale
Experimental: The effect of the peptides of the current invention on acute lung injury can be assessed in an LPS-induced acute lung injury mouse model by monitoring outcomes such as lung weight, fluid accumulation, cytokine secretion in blood or bronchoalveolar lavage fluid (BALF), neutrophil infiltration into lung tissues, and assessment of acute lung injury score by histopathology. Acute lung injury was induced in male C57BL/6 mice (6 to 8 weeks old) by intratracheal administration of 40 μL lipopolysaccharide (LPS) (Sigma Aldrich, St. Louis, Mo.) in PBS at 5 mg/kg. Control animals received intratracheal PBS alone. Animals (n=8 per treatment group) induced with LPS received intraperitoneal treatment with: PBS (vehicle control) or test peptides at 5 or 15 mg/kg in water. Treatments were administered 1 h prior to LPS for animals designated for termination at 4 h after LPS, or at both 1 h prior to and 6 h after LPS for animals designated for termination at 24 h after LPS. At 4 or 24 hours post-LPS administration, tissues were harvested. Lungs were weighed and flushed with Hanks Buffer to provide bronchoalveolar lavage fluid (BALF). Lungs collected at 24 h were fixed in 10% neutral buffered formalin (NBF) for histopathology. Tissue slides were stained with hematoxylin and eosin (H&E) and evaluated and scored with light microscopy of 5 representative microscopic fields (100× magnification) scoring on a 0-5 scale using standard methods (Matute-Bello G et al 2011. An Official American Thoracic Society Workshop Report: Features and Measurements of Experimental Acute Lung Injury in Animals. Am J Respir Cell Mol Biol 44:725-38). The average score for five fields was calculated for each animal. Levels of pro-inflammatory cytokines in BALF at 4 h were determined using a meso scale discovery (MSD) system. Data for test peptides were compared to the vehicle control group. Table 13 compares the lung weights following LPS induction and treatment with PBS (vehicle control), or peptides. Table 14 compares the levels of pro-inflammatory cytokines in BALF following LPS induction and treatment with PBS (vehicle control) or peptides. Table 15 compares the histopathology scores for infiltration of neutrophils into alveoli and interstitial lung tissue and the composite lung injury score following LPS induction and treatment with PBS (vehicle control) or peptides.

[2] = system: LPS-induced acute lung injury mouse model; experiment: LPS-induced acute lung injury model in mouse (Example 7); format: in vivo, mice; conditions: 4 h after LPS, 5 mg/kg i.p.
Experimental: The effect of the peptides of the current invention on acute lung injury can be assessed in an LPS-induced acute lung injury mouse model by monitoring outcomes such as lung weight, fluid accumulation, cytokine secretion in blood or bronchoalveolar lavage fluid (BALF). Acute lung injury was induced in male C57BL/6 mice (6 to 8 weeks old) by intratracheal administration of 40 μL lipopolysaccharide (LPS) (Sigma Aldrich, St. Louis, Mo.) in PBS at 5 mg/kg. Control animals received intratracheal PBS alone. Animals (n=8 per treatment group) induced with LPS received intraperitoneal treatment with: PBS (vehicle control) or test peptides at 5 mg/kg in water. Treatments were administered 1 h prior to LPS. At 4 h post LPS administration, tissues were harvested. Lungs were weighed, flushed with Hanks Buffer to provide bronchoalveolar lavage fluid (BALF). Data for test peptides were compared to the vehicle control group. Table 11 compares the lung weights following LPS induction and treatment with PBS (vehicle control) or peptides. Table 12 compares the levels of pro-inflammatory cytokines in BALF following LPS induction and treatment with PBS (vehicle control) or peptides.

In the case of “(PEG12)KRRLLGLVFQSLCG(dA) (KRRLLGLVFQSLCGA; N-terminal PEG12; C-terminal D-alanine; (1)..(1) PEG12; (15)..(15) D-Ala) [SEQ ID NO: 37]”, the “Mean (SEM) Lung Weight” value ([1]; 4 h after LPS, 5 mg/kg i.p.) was 0.279 (0.006) g, the “Mean (SEM) Lung Weight” value ([1]; 4 h after LPS, 15 mg/kg i.p.) was 0.280 (0.005) g and the “Mean (SEM) Lung Weight” value ([1]; 24 h after LPS, 5 mg/kg i.p.) was 0.286 (0.008)* g. The “Mean (SEM) Lung Weight” value ([1]; 24 h after LPS, 15 mg/kg i.p.) was 0.284 (0.007)* g, the “Pro-inflammatory Cytokine Level IFNγ” value ([1]; 4 h after LPS, 5 mg/kg i.p.) was 0.37 (0.07) pg/mL and the “Pro-inflammatory Cytokine Level IL-1β” value ([1]; 4 h after LPS, 5 mg/kg i.p.) was 68.3 (12.6) pg/mL. The “Pro-inflammatory Cytokine Level IL-2” value ([1]; 4 h after LPS, 5 mg/kg i.p.) was 2.83 (0.45) pg/mL, the “Pro-inflammatory Cytokine Level IL-4” value ([1]; 4 h after LPS, 5 mg/kg i.p.) was 1.63 (0.37) pg/mL and the “Pro-inflammatory Cytokine Level IL-5” value ([1]; 4 h after LPS, 5 mg/kg i.p.) was 8.14 (1.35) pg/mL. The “Pro-inflammatory Cytokine Level IL-6” value ([1]; 4 h after LPS, 5 mg/kg i.p.) was 9380 (1380) pg/mL, the “Pro-inflammatory Cytokine Level IL-9” value ([1]; 4 h after LPS, 5 mg/kg i.p.) was 7.84 (0.67) pg/mL and the “Pro-inflammatory Cytokine Level IL-10” value ([1]; 4 h after LPS, 5 mg/kg i.p.) was 32.2 (5.31) pg/mL. For the same substance, the “Pro-inflammatory Cytokine Level IL-12p70” value ([1]; 4 h after LPS, 5 mg/kg i.p.) was 65.2 (15.9) pg/mL, the “Pro-inflammatory Cytokine Level IL-17A” value ([1]; 4 h after LPS, 5 mg/kg i.p.) was 2.22 (0.741) pg/mL and the “Pro-inflammatory Cytokine Level IL-17A/F” value ([1]; 4 h after LPS, 5 mg/kg i.p.) was 7.45 (2.46) pg/mL. The “Pro-inflammatory Cytokine Level IL-17C” value ([1]; 4 h after LPS, 5 mg/kg i.p.) was 0.66 (0.04) pg/mL, the “Pro-inflammatory Cytokine Level IL-17E/IL-25” value ([1]; 4 h after LPS, 5 mg/kg i.p.) was 0.18 (0.10) pg/mL and the “Pro-inflammatory Cytokine Level IL-23” value ([1]; 4 h after LPS, 5 mg/kg i.p.) was 0.08 (0.07) pg/mL. For the same substance, the “Pro-inflammatory Cytokine Level IL-27p28/IL-30” value ([1]; 4 h after LPS, 5 mg/kg i.p.) was 13.7 (2.44) pg/mL, the “Pro-inflammatory Cytokine Level IL-31” value ([1]; 4 h after LPS, 5 mg/kg i.p.) was 0.00 (0.00) pg/mL and the “Pro-inflammatory Cytokine Level IP-10” value ([1]; 4 h after LPS, 5 mg/kg i.p.) was 2290 (341) pg/mL. For the same substance, the “Pro-inflammatory Cytokine Level KC/GRO” value ([1]; 4 h after LPS, 5 mg/kg i.p.) was 3120 (196) pg/mL, the “Pro-inflammatory Cytokine Level MCP-1” value ([1]; 4 h after LPS, 5 mg/kg i.p.) was 1310 (225) pg/mL and the “Pro-inflammatory Cytokine Level MIP-1α” value ([1]; 4 h after LPS, 5 mg/kg i.p.) was 5660 (50.6) pg/mL. The “Pro-inflammatory Cytokine Level MIP-2” value ([1]; 4 h after LPS, 5 mg/kg i.p.) was 3230 (25.1) pg/mL, the “Pro-inflammatory Cytokine Level MIP-3α” value ([1]; 4 h after LPS, 5 mg/kg i.p.) was 983 (75.1) pg/mL and the “Pro-inflammatory Cytokine Level TNFα” value ([1]; 4 h after LPS, 5 mg/kg i.p.) was 4070 (518) pg/mL. For the same substance, the “Pro-inflammatory Cytokine Level IFNγ” value ([1]; 4 h after LPS, 15 mg/kg i.p.) was 0.42 (0.10) pg/mL, the “Pro-inflammatory Cytokine Level IL-1β” value ([1]; 4 h after LPS, 15 mg/kg i.p.) was 91.5 (20.0) pg/mL and the “Pro-inflammatory Cytokine Level IL-2” value ([1]; 4 h after LPS, 15 mg/kg i.p.) was 3.36 (0.55) pg/mL. For the same substance, the “Pro-inflammatory Cytokine Level IL-4” value ([1]; 4 h after LPS, 15 mg/kg i.p.) was 1.75 (0.28) pg/mL, the “Pro-inflammatory Cytokine Level IL-5” value ([1]; 4 h after LPS, 15 mg/kg i.p.) was 13.2 (2.05) pg/mL and the “Pro-inflammatory Cytokine Level IL-6” value ([1]; 4 h after LPS, 15 mg/kg i.p.) was 11600 (1360) pg/mL. The “Pro-inflammatory Cytokine Level IL-9” value ([1]; 4 h after LPS, 15 mg/kg i.p.) was 7.89 (1.31) pg/mL, the “Pro-inflammatory Cytokine Level IL-10” value ([1]; 4 h after LPS, 15 mg/kg i.p.) was 31.5 (3.76) pg/mL and the “Pro-inflammatory Cytokine Level IL-12p70” value ([1]; 4 h after LPS, 15 mg/kg i.p.) was 80.0 (21.8) pg/mL. For the same substance, the “Pro-inflammatory Cytokine Level IL-17A” value ([1]; 4 h after LPS, 15 mg/kg i.p.) was 2.82 (0.639) pg/mL, the “Pro-inflammatory Cytokine Level IL-17A/F” value ([1]; 4 h after LPS, 15 mg/kg i.p.) was 4.48 (0.59) pg/mL and the “Pro-inflammatory Cytokine Level IL-17C” value ([1]; 4 h after LPS, 15 mg/kg i.p.) was 0.69 (0.13) pg/mL. For the same substance, the “Pro-inflammatory Cytokine Level IL-17E/IL-25” value ([1]; 4 h after LPS, 15 mg/kg i.p.) was 0.44 (0.29) pg/mL, the “Pro-inflammatory Cytokine Level IL-23” value ([1]; 4 h after LPS, 15 mg/kg i.p.) was 0.06 (0.05) pg/mL and the “Pro-inflammatory Cytokine Level IL-27p28/IL-30” value ([1]; 4 h after LPS, 15 mg/kg i.p.) was 15.5 (2.42) pg/mL. For the same substance, the “Pro-inflammatory Cytokine Level IL-31” value ([1]; 4 h after LPS, 15 mg/kg i.p.) was 0.00 (0.00) pg/mL, the “Pro-inflammatory Cytokine Level IP-10” value ([1]; 4 h after LPS, 15 mg/kg i.p.) was 3020 (547) pg/mL and the “Pro-inflammatory Cytokine Level KC/GRO” value ([1]; 4 h after LPS, 15 mg/kg i.p.) was 3260 (142) pg/mL. For the same substance, the “Pro-inflammatory Cytokine Level MCP-1” value ([1]; 4 h after LPS, 15 mg/kg i.p.) was 1590 (178) pg/mL, the “Pro-inflammatory Cytokine Level MIP-1α” value ([1]; 4 h after LPS, 15 mg/kg i.p.) was 5490 (35.1) pg/mL and the “Pro-inflammatory Cytokine Level MIP-2” value ([1]; 4 h after LPS, 15 mg/kg i.p.) was 3160 (34.2) pg/mL. The “Pro-inflammatory Cytokine Level MIP-3α” value ([1]; 4 h after LPS, 15 mg/kg i.p.) was 825 (46.9) pg/mL, the “Pro-inflammatory Cytokine Level TNFα” value ([1]; 4 h after LPS, 15 mg/kg i.p.) was 3910 (349) pg/mL and the “Mean (SEM) Alveolar Neutrophil Infiltration Score” value ([1]; 24 h after LPS, 5 mg/kg i.p.) was 1.50 (0.09). For the same substance, the “Mean (SEM) Interstitial Neutrophil Infiltration Score” value ([1]; 24 h after LPS, 5 mg/kg i.p.) was 1.55 (0.14), the “Mean (SEM) Alveolar Neutrophil Infiltration Score” value ([1]; 24 h after LPS, 15 mg/kg i.p.) was 1.60 (0.13) and the “Mean (SEM) Interstitial Neutrophil Infiltration Score” value ([1]; 24 h after LPS, 15 mg/kg i.p.) was 1.23 (0.11). The “Mean (SEM) Composite Lung Injury Score” value ([1]; 24 h after LPS, 5 mg/kg i.p.) was 3.08 (0.17), the “Mean (SEM) Composite Lung Injury Score” value ([1]; 24 h after LPS, 15 mg/kg i.p.) was 2.93 (0.22) and the “Mean (SEM) Lung Weight” value [2] was 0.259 (0.004)*** g. For the same substance, the “Pro-inflammatory Cytokine Level IFNγ” value ([2]; BALF) was 0.13 pg/mL, the “Pro-inflammatory Cytokine Level IL-1β” value ([2]; BALF) was 72.5 pg/mL and the “Pro-inflammatory Cytokine Level IL-2” value ([2]; BALF) was 0.60 pg/mL. For the same substance, the “Pro-inflammatory Cytokine Level IL-4” value ([2]; BALF) was 0.86 pg/mL, the “Pro-inflammatory Cytokine Level IL-6” value ([2]; BALF) was 3080 pg/mL and the “Pro-inflammatory Cytokine Level IL-9” value ([2]; BALF) was 4.74 pg/mL. The “Pro-inflammatory Cytokine Level KC/GRO” value ([2]; BALF) was 2660 pg/mL and the “Pro-inflammatory Cytokine Level TNFα” value ([2]; BALF) was 3850 pg/mL.
